Assay results from the supplement of paper PMC11451515.

System: SEM cells
Test: cell viability relative to DMSO control; higher = less cytotoxic
Settings: 48 h
Outline: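 Before seeding, each leukemia line was adapted for at least four passages in each medium. NOMO1 or SEM cells (500 cells/well) and P12-Ichikawa cells (1000 cells/well) went into 1536-well plates at 5 μl, then received library compounds in DMSO by pin dosing across 11 threefold concentrations, 47 μM to 0.79 nM. Readout was CellTiter-Glo One luminescence after 48 h at 37°C, and viability is given as a per-plate percentage of DMSO wells, with cell-free wells as background.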

[1] = HPLM + 10% dialyzed FBS, 0.000781 µM
[2] = HPLM + 10% dialyzed FBS, 0.00234 µM
[3] = HPLM + 10% dialyzed FBS, 0.00702 µM
[4] = HPLM + 10% dialyzed FBS, 0.0211 µM
[5] = HPLM + 10% dialyzed FBS, 0.0632 µM
[6] = HPLM + 10% dialyzed FBS, 0.19 µM
[7] = HPLM + 10% dialyzed FBS, 0.569 µM
[8] = HPLM + 10% dialyzed FBS, 1.71 µM
[9] = HPLM + 10% dialyzed FBS, 5.12 µM
[10] = HPLM + 10% dialyzed FBS, 15.4 µM
[11] = HPLM + 10% dialyzed FBS, 46.1 µM
[12] = RPMI 5 mM glucose + 10% FBS, 0.000781 µM
[13] = RPMI 5 mM glucose + 10% FBS, 0.00234 µM
[14] = RPMI 5 mM glucose + 10% FBS, 0.00702 µM
[15] = RPMI 5 mM glucose + 10% FBS, 0.0211 µM
[16] = RPMI 5 mM glucose + 10% FBS, 0.0632 µM
[17] = RPMI 5 mM glucose + 10% FBS, 0.19 µM
[18] = RPMI 5 mM glucose + 10% FBS, 0.569 µM
[19] = RPMI 5 mM glucose + 10% FBS, 1.71 µM
[20] = RPMI 5 mM glucose + 10% FBS, 5.12 µM
[21] = RPMI 5 mM glucose + 10% FBS, 15.4 µM
[22] = RPMI 5 mM glucose + 10% FBS, 46.1 µM
[23] = RPMI 5 mM glucose + 10% dialyzed FBS, 0.000781 µM
[24] = RPMI 5 mM glucose + 10% dialyzed FBS, 0.00234 µM
[25] = RPMI 5 mM glucose + 10% dialyzed FBS, 0.00702 µM
[26] = RPMI 5 mM glucose + 10% dialyzed FBS, 0.0211 µM
[27] = RPMI 5 mM glucose + 10% dialyzed FBS, 0.0632 µM
[28] = RPMI 5 mM glucose + 10% dialyzed FBS, 0.19 µM
[29] = RPMI 5 mM glucose + 10% dialyzed FBS, 0.569 µM
[30] = RPMI 5 mM glucose + 10% dialyzed FBS, 1.71 µM
[31] = RPMI 5 mM glucose + 10% dialyzed FBS, 5.12 µM
[32] = RPMI 5 mM glucose + 10% dialyzed FBS, 15.4 µM
[33] = RPMI 5 mM glucose + 10% dialyzed FBS, 46.1 µM

SMILES	cell viability [1] [%]	cell viability [2] [%]	cell viability [3] [%]	cell viability [4] [%]	cell viability [5] [%]	cell viability [6] [%]	cell viability [7] [%]	cell viability [8] [%]	cell viability [9] [%]	cell viability [10] [%]	cell viability [11] [%]	cell viability [12] [%]	cell viability [13] [%]	cell viability [14] [%]	cell viability [15] [%]	cell viability [16] [%]	cell viability [17] [%]	cell viability [18] [%]	cell viability [19] [%]	cell viability [20] [%]	cell viability [21] [%]	cell viability [22] [%]	cell viability [23] [%]	cell viability [24] [%]	cell viability [25] [%]	cell viability [26] [%]	cell viability [27] [%]	cell viability [28] [%]	cell viability [29] [%]	cell viability [30] [%]	cell viability [31] [%]	cell viability [32] [%]	cell viability [33] [%]
Cc1[nH]c(/C=C2\C(=O)Nc3ccc([S+](=O)([O-])N(C)c4cccc(Cl)c4)cc32)c(C)c1C(=O)N1CCN(C)CC1	101	120	113	125	129	108	114	98.3	71.5	38.6	2.39	98.4	111	118	107	96.9	82	106	86.5	54.3	31.3	1.69	–	–	–	–	–	–	–	–	–	–	–
Fc1cc(-c2cccc3ncc(-c4cnn(C5CCNCC5)c4)nc23)cc(F)c1CN1CCOCC1	–	–	–	–	–	–	–	–	–	–	–	110	113	107	110	112	105	103	95.8	27.4	25.7	16	–	–	–	–	–	–	–	–	–	–	–
Cl.c1cnc2cc3c(cc2n1)C1CNCC3C1	98.5	102	104	104	118	113	114	122	108	113	119	98.7	94.4	91.3	105	111	117	111	105	97.7	110	120	101	93.4	111	121	122	126	115	135	113	111	103
C#Cc1cccc(Nc2ncnc3cc(OCCOC)c(OCCO)cc23)c1	104	113	98.3	117	116	123	110	105	96.8	69.1	20	–	–	–	–	–	–	–	–	–	–	–	114	107	118	114	116	103	105	88.4	94.9	62.5	14.5
C[C@@H](c1ncncc1F)[C@](O)(Cn1cncn1)c1ccc(F)cc1F	119	116	118	110	121	25.3	114	118	19	120	83.4	–	–	–	–	–	–	–	–	–	–	–	123	125	126	126	141	32.3	140	103	15.2	121	73.9
O=[N+]([O-])c1cn2c(n1)OC[C@@H](OCc1ccc(OC(F)(F)F)cc1)C2	105	97.3	108	115	109	101	96.3	89	86.7	92.4	90.5	120	112	118	144	117	129	137	125	114	122	132	–	–	–	–	–	–	–	–	–	–	–
C1Cc2[nH]nc(-c3nn[nH]n3)c2C1	91.4	101	113	114	107	104	128	128	120	116	100	112	122	119	128	125	137	129	163	136	145	140	115	129	125	127	141	162	145	141	149	144	162
CC(C)OC(=O)CCC/C=C\C[C@@H]1[C@@H](/C=C/[C@@H](O)COc2cccc(C(F)(F)F)c2)[C@H](O)C[C@@H]1O	65.4	124	115	118	118	118	121	122	106	102	31.7	–	–	–	–	–	–	–	–	–	–	–	–	–	–	–	–	–	–	–	–	–	–
CCOC(=O)Nc1ccc(NCc2ccc(F)cc2)cc1N	122	122	128	120	103	123	119	112	113	107	90	115	116	123	136	102	131	122	111	113	134	97.7	106	132	121	128	123	124	112	122	124	122	83.5
Clc1ccc(C2(c3ccc(-c4cn[nH]c4)cc3)CCNCC2)cc1	79.1	97.2	83.5	106	88.8	96.4	73.7	87.4	77.7	40.1	39.9	95.1	99	110	108	96.1	100	98.7	102	95.9	56.7	61	88.3	91.9	90.7	92.7	80.5	90.7	71.8	89.5	80.1	57.1	46.5
COc1ccc(/C=C\c2cc(OC)c(OC)c(OC)c2)cc1O	27.3	26.8	29.2	27.9	19.5	15.9	16.8	12.7	8.59	6.14	3.96	20	22.4	23	15.1	8.98	7.29	7.3	5.54	5.21	3.08	2.03	23.3	28.5	33.5	25.2	12.6	10.5	9.81	7.46	6.37	4.4	2.55
CCCCCCCCCCCC(CC1OC(=O)C1CCCCCC)OC(=O)C(CC(C)C)NC=O (stereo not given)	86.9	82.3	96.1	99	92.8	98.8	91.4	98	83.2	65.1	10.1	82.2	86.8	96.6	86.6	86.9	91.2	79.9	76.2	48.2	24.9	6.99	86.9	90.5	101	82.1	105	99.4	108	87.6	64.8	38.1	7.62
O=C(O)c1ccc2cc(-c3ccc(O)c(C45CC6CC(CC(C6)C4)C5)c3)ccc2c1	–	–	–	–	–	–	–	–	–	–	–	120	129	114	118	118	93.1	41.7	19.8	10.5	9.46	8.21	–	–	–	–	–	–	–	–	–	–	–
COc1cc2c(Nc3ccc(NC(=O)c4ccccc4)cc3)ncnc2cc1OCCCN1CCOCC1	105	119	124	140	130	133	123	105	56.8	44.5	40.6	122	127	112	140	136	124	144	122	55	25.9	22.4	–	–	–	–	–	–	–	–	–	–	–
CCCCN(CCCC)CCC(O)c1cc2c(Cl)cc(Cl)cc2c2cc(C(F)(F)F)ccc12 (stereo not given)	92.5	93.3	84.3	104	108	122	36.2	61.7	117	91.3	109	109	105	107	115	116	141	48.4	52	111	89.7	89	92.1	116	109	110	105	118	46.2	48.3	104	83.1	105
COc1nc(-c2ccc3c(c2)OCO3)n(-c2ccc(NC(=O)CSc3ccccc3)cc2)n1	118	97.1	106	112	114	103	117	98	110	98.5	98.9	113	104	117	102	107	108	94.2	95.5	95.8	101	86.7	96.4	108	122	119	119	102	89	105	118	99.7	82.9
C[C@]\1(CCS\C(=N1)N)C2=CC(=C(F)C=C2F)C3=CN=CN=C3	80	95.5	91.6	94.5	90.4	94.6	108	99.3	102	102	29.3	92	84.1	98	104	106	95.7	96.6	114	71.2	5.19	2.28	95.1	80.4	107	111	103	96.4	101	108	95.8	51.3	2.95
